For one test, the system named is MCF-7 cell line. Put plainly: cells. Conditions: Homo sapiens; for IC (total growth inhibition): read-out: TGI. It counts as cell-based.
For a further test, the target named is JNK2 (Homo sapiens, UniProt P45984). Put plainly: Kinase screen: JNK2 assay. It counts as biochemical. How it is done: (§1) Generally, the same procedure was used for all assays. Since the total assay volume was 25.5 microliters, 0.5 microliters of inhibitors at 51× assay concentration were added to the plates before any other addition.
(§2) The basic procedure was to add 0.5 microliters inhibitor/control in DMSO to plate. Fifteen microliters of enzyme/substrate/buffer mix were added and incubated for 5 min. Ten microliters MgATP at the relevant concentration were added and incubated for 30 min. The assay was stopped by adding 5 microliters of 3% orthophosphoric acid. The assay was transferred to a p81 filter plate and read in a scintillation counter of 30 sec/well. Note that this assay procedure was not followed for MKK1, which instead involved a two-step assay, and PKC alpha, which required the addition of lipid vesicles.
JNK2 assay: JNK2 1(5-20 mU diluted in 50 mM Tris (pH 7.5), 0.1 mM EGTA, 1 mg/ml BSA, 0.1% b-mercaptoethanol) was assayed against ATF2 (activating transcription factor in a final volume of 25.5 μl in 50 mM Tris pH 7.5, 0.1 mM EGTA, 0.1% b-Mercaptoethanol, ATF2 (3 μM), 10 mM magnesium acetate and 0.02 mM [33P-g-ATP] (500-1000 cpm/pmole) and incubated for 30 min at room temperature. Assays were stopped by addition of 5 μl of 0.5 M (3%) orthophosphoric acid and then harvested onto P81 Unifilter plates with a wash buffer of 50 mM orthophosphoric acid.

The next test has as its target p38α MAPK (Homo sapiens, UniProt Q16539). The test can be described thus: Kinase screen: SAPK 2a/p38 assay. The format is biochemical. Here is the method:
as §1, §2
SAPK 2a/p38 assay: SAPK 2a/p38 (5-20 mU diluted in 50 mM Tris pH 7.5, 0.1 mM EGTA, 0.1 mM Na3VO4, 0.1% b-mercaptoethanol, 1 mg/ml BSA) was assayed against MBP in a final volume of 25.5 μl containing 25 mM Tris pH 7.5, 0.1 mM EGTA, 0.33 mg/ml MBP, 10 mM magnesium acetate and 0.05 mM [33P-g-ATP] (50-1000 cpm/pmole) and incubated for 30 min at room temperature. Assays were stopped by addition of 5 μl of 0.5 M (3%) orthophosphoric acid and then harvested onto P81 Unifilter plates with a wash buffer of 50 mM orthophosphoric acid.

In a further test the target is S6K1 (Homo sapiens, UniProt P23443). The test can be described thus: Kinase screen: S6K1/P70 S6K assay. The format is biochemical. Here is the method:
as §1, §2
(§3) (50-1000 cpm/pmole) and incubated for 30 min at room temperature. Assays were stopped by addition of 5 μl of 0.5 M (3%) orthophosphoric acid and then harvested onto P81 Unifilter plates with a wash buffer of 50 mM orthophosphoric acid.

The target of a further test is CHK2 (Homo sapiens, UniProt O96017). Put plainly: Kinase screen: CHK2 assay. It counts as biochemical. Here is the method: as §1, §2
CHK2 assay: CHK2 (5-20 mU diluted in 20 mM MOPS pH 7.5, 1 mM EDTA, 0.1% b-mercaptoethanol, 0.01% Brij-35, 5% glycerol, 1 mg/ml BSA) was assayed against CHKtide substrate peptide ([…]) (SEQ ID NO: 12) in a final volume of 25.5 μl containing 8 mM MOPS pH 7.0, 0.2 mM EDTA, 200 μM CHKtide, 10 mM magnesium acetate and 0.02 mM [33P-g-ATP] (50-1000 cpm/pmole) and incubated for 30 min at room temperature Assays were stopped by addition of 5 μl of 0.5 M (3%) orthophosphoric acid and then harvested onto P81 Unifilter plates with a wash buffer of 50 mM orthophosphoric acid.

Another test concerns the target PLK1 (Homo sapiens, UniProt P53350). The test can be described thus: Kinase screen: PLK1 assay. It counts as biochemical. Here is the method:
as §1, §2, §3

For another test, the target named is PIM3 (Homo sapiens, UniProt Q86V86). Put plainly: Kinase screen: PIM3 assay. The format is biochemical. Here is the method:
as §1, §2
PIM3 assay: PIM3 (5-20 mU diluted in 50 mM Tris pH 7.5, 0.1 mM EGTA, 0.1% b-mercaptoethanol, 1 mg/ml BSA) was assayed against a substrate peptide ([…]) (SEQ ID NO: 23) in a final volume of 25.5 μl containing 50 mM Tris pH 7.5, 0.05% b-mercaptoethanol, 300 μM substrate peptide, 10 mM magnesium acetate and 0.02 mM [33P-g-ATP] (50-1000 cpm/pmole) and incubated for 30 min at room temperature. Assays were stopped by addition of 5 μl of 0.5 M (3%) orthophosphoric acid and then harvested onto P81 Unifilter plates with a wash buffer of 50 mM orthophosphoric acid.

Another test addresses Lck (Homo sapiens, UniProt P06239). The test can be described thus: Kinase screen: LCK assay. The format is biochemical. How it is done:
as §1, §2
(500-1000 cpm/pmole) and incubated for 15 min at room temperature Assays were stopped by addition of 5 μl of 0.5 M (3%) orthophosphoric acid and then harvested onto P81 Unifilter plates with a wash buffer of 50 mM orthophosphoric acid.

[1] abbreviates: MCF7, 24 h, MCF-7, SRB assay, 24 hours.
Where [2] appears, read: MCF7, MCF-7, SRB assay, 24 hours, mean of three experiments, read-out: IC50.
Setting [3] is: 10 micromolar compound, read-out: mean activity remaining (as a percentage of the original activity), JNK2.
Where [4] appears, read: 10 micromolar compound, read-out: mean activity remaining (as a percentage of the original activity), p38a2 MAPK.
The mark [5] stands for this setting: 10 micromolar compound, read-out: mean activity remaining (as a percentage of the original activity), S6K1.
The mark [6] stands for this setting: 10 micromolar compound, read-out: mean activity remaining (as a percentage of the original activity), CHK 2.
Setting [7] is: 10 micromolar compound, read-out: mean activity remaining (as a percentage of the original activity), PLK 1.
Where [8] appears, read: 10 micromolar compound, read-out: mean activity remaining (as a percentage of the original activity), PIM3.
Where [9] appears, read: 10 micromolar compound, read-out: mean activity remaining (as a percentage of the original activity), Lck.

Where two headings read alike, the source gives them in different places.

One may read the IC50 as the concentration at which inhibition is half-maximal. As a reminder, the remaining activity is the signal under treatment as a percentage of the control signal.

Chain of Lck (P06239 whole entry, species assumed): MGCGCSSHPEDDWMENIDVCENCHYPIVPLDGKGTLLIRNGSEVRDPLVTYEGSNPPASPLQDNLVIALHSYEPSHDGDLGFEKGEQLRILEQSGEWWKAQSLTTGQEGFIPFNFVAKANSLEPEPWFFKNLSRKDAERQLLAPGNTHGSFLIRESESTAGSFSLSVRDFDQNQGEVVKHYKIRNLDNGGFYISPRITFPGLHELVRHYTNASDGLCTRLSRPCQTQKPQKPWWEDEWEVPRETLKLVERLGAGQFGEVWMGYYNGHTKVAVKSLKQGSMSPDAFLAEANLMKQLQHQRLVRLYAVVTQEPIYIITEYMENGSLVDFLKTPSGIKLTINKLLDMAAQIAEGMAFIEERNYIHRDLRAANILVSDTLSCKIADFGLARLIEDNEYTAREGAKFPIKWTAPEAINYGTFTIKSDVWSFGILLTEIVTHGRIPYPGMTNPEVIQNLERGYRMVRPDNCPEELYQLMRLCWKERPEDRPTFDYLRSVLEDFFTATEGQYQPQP
Chain of p38α MAPK (Q16539 whole entry): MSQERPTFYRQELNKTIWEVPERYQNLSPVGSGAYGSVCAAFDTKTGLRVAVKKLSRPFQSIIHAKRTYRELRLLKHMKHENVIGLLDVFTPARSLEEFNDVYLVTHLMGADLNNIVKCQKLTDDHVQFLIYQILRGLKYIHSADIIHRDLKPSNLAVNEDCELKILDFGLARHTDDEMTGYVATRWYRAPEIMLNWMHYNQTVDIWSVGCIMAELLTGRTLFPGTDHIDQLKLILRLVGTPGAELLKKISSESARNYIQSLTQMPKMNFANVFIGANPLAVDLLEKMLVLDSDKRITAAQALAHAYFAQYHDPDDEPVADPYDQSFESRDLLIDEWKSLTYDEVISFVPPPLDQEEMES
Chain of PLK1 (P53350 whole entry, species assumed): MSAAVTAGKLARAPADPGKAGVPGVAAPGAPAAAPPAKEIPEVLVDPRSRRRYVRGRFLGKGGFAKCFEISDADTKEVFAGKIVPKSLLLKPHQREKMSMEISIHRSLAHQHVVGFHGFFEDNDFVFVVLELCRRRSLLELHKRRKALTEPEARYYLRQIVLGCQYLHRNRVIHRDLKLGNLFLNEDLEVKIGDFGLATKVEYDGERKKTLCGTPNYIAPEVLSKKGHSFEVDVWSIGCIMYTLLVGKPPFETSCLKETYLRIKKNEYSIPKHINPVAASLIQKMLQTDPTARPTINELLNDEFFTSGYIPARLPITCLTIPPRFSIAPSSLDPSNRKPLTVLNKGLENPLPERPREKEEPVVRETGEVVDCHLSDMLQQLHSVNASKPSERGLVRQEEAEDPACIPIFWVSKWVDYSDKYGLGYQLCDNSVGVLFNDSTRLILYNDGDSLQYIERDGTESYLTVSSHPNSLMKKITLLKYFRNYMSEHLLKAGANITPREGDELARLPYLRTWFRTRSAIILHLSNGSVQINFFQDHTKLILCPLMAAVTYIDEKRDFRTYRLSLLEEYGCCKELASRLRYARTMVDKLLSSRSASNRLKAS
Chain of JNK2 (P45984 whole entry, species assumed): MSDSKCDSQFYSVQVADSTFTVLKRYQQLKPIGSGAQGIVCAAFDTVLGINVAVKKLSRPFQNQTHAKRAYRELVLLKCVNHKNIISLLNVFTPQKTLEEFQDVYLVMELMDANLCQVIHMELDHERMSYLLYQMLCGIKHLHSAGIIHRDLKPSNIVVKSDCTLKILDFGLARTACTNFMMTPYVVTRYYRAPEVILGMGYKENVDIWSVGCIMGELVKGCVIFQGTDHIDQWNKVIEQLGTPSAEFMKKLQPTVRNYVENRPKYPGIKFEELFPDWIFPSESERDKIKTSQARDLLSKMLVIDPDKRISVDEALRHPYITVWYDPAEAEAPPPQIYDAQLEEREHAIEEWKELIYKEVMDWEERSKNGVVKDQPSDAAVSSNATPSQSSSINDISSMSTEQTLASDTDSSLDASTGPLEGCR
Chain of CHK2 (O96017 whole entry, species assumed): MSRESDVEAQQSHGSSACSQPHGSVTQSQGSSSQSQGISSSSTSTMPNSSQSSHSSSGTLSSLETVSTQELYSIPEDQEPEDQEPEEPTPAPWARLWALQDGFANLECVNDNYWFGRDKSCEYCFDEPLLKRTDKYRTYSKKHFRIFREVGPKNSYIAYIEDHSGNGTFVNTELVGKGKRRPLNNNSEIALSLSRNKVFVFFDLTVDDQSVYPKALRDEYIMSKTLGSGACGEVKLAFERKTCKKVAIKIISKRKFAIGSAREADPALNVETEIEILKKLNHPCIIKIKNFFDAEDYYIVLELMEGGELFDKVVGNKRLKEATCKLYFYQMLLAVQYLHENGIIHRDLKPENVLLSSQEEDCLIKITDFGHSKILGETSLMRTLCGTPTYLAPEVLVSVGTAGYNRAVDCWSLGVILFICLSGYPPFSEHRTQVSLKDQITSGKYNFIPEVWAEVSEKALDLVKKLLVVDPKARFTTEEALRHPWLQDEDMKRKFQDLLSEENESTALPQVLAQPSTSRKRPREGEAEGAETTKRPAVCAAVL
Chain of S6K1 (P23443 whole entry, species assumed): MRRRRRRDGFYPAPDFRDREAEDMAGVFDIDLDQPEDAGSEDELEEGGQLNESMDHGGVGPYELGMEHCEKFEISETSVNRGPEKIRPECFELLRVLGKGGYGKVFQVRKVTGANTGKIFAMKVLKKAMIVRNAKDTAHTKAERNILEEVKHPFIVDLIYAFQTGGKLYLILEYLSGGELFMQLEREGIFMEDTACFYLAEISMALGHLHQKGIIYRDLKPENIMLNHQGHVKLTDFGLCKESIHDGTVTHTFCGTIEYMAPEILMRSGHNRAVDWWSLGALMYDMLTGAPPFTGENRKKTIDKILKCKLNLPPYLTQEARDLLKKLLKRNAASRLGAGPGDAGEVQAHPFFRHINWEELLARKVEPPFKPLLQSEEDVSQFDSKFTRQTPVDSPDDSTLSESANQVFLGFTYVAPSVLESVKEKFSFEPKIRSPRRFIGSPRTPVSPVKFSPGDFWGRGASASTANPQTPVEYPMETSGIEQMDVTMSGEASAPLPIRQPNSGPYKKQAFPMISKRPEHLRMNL

With `CC[C@H](CO)Nc1cc(NCc2ccccc2)n2ncc(C(C)C)c2n1` [ICEC0067], the IC (total growth inhibition) in the test on MCF-7 cell line (setting [1]) came to 13 µM. In addition, the IC50 in the test with MCF-7 cell line (setting [2]) was greater than 100 µM. For the same compound, the remaining activity at 10 µM came out at 97% at JNK2 (setting [3]); 99% on p38α MAPK (setting [4]); 74% at S6K1 (setting [5]); 70% at CHK2 (setting [6]); 64% on PLK1 (setting [7]); 96% on PIM3 (setting [8]). Also, on Lck (setting [9]), the remaining activity at 10 µM worked out at 70%.

In the test with MCF-7 cell line (setting [1]), `C=C[C@H](CO)Nc1cc(NCc2ccccc2)n2ncc(C(C)C)c2n1` [ICEC0065] yielded an LC50 (concentration causing 50% net cell kill) of 8.5 µM. Besides, the IC (total growth inhibition) in the test with MCF-7 cell line (setting [1]) amounted to 12 µM. The IC50 with MCF-7 cell line (setting [2]) is greater than 100 µM. The remaining activity at 10 µM at JNK2 (setting [3]) was 88%; at p38α MAPK (setting [4]), 94%; at S6K1 (setting [5]), 78%; on CHK2 (setting [6]) it was 81%; at PLK1 (setting [7]) it was 56%; at PIM3 (setting [8]), 100%. For the same compound, the remaining activity at 10 µM at Lck (setting [9]) turned out to be 74%.

Consider `CC(C)c1cnn2c(NCc3ccccc3)cc(N[C@@H](CO)[C@H](O)CO)nc12` [ICEC0318, (3S)-3-(7-(Benzylamino)-3-isopropylpyrazolo[1,5-a]pyrimidin-5-ylamino)butane-1,2,4-triol], for which, in the test on MCF-7 cell line (MCF7, 24 h), the IC50 was less than 2 µM. Besides, in the test on MCF-7 cell line (setting [1]), the IC (total growth inhibition) was less than 2 µM. In addition, the remaining activity at 10 µM on JNK2 (setting [3]) worked out at 94%; at p38α MAPK (setting [4]), 98%; at S6K1 (setting [5]), 77%; at CHK2 (setting [6]), 61%; at PLK1 (setting [7]), 68%; on PIM3 (setting [8]) it was 101%. Further, the remaining activity at 10 µM on Lck (setting [9]) turned out to be 85%.

Turning to `CC(C)c1cnn2c(NCc3ccccc3F)cc(NCCCCCN)nc12` [ICEC-0232], the “mean activity remaining (as a percentage of the original activity), JNK2” value at JNK2 (10 micromolar compound) is 89%. In addition, the “mean activity remaining (as a percentage of the original activity), p38a2 MAPK” value on p38α MAPK (10 micromolar compound) was 86%. Also, at S6K1 (10 micromolar compound), the “mean activity remaining (as a percentage of the original activity), S6K1” value was found to be 42%. Further, the “mean activity remaining (as a percentage of the original activity), CHK 2” value on CHK2 (10 micromolar compound) is reported as 15%. Further, the “mean activity remaining (as a percentage of the original activity), PLK 1” value on PLK1 (10 micromolar compound) turned out to be 55%. In addition, the “mean activity remaining (as a percentage of the original activity), PIM3” value on PIM3 (10 micromolar compound) came to 76%. Further, the “mean activity remaining (as a percentage of the original activity), Lck” value at Lck (10 micromolar compound) worked out at 62%.

As to `CC(C)c1cnn2c(NCc3ccccc3)cc(NCCCCCCCN)nc12` [BS-181], the remaining activity at 10 µM is 90% on JNK2 (JNK2, 10 μM, read-out: Mean Remaining Enzyme Activity (%)); 95% on p38α MAPK (p38α MAPK, 10 μM, read-out: Mean Remaining Enzyme Activity (%)); 95% on S6K1 (S6K1, 10 μM, read-out: Mean Remaining Enzyme Activity (%)); 36% on CHK2 (CHK2, 10 μM, read-out: Mean Remaining Enzyme Activity (%)); 100% at PLK1 (PLK1, 10 μM, read-out: Mean Remaining Enzyme Activity (%)); 78% on PIM3 (PIM3, 10 μM, read-out: Mean Remaining Enzyme Activity (%)). For the same compound, on Lck (Lck, 10 μM, read-out: Mean Remaining Enzyme Activity (%)), the remaining activity at 10 µM came to 95%.

For the origin of these results see patent US8067424B2, “Selective inhibitors for cyclin-dependent kinases” (Emory University, priority 2007, dated 2011).
